test system: skin; assay: Safety test: skin irritation patch test of the surfactants; assay type: in vivo; conditions: Sample (solution) per table head; patch on 20 subjects for 24 hours, evaluated 24 hours after removing; clear erythema = positive
Experimental: As a safety test on the above trehalose-6-fatty acid esters, irritation to skin was examinaed in accordance with the following procedures.
[…] Irritaion was evaluated 24 hours after removing the patch. […] Sodium laurylphosphate used as a control is a surfactant which is usually used in shampoos, body shampoos and the like.

| Compound | Irritation to skin, positive, % |
| --- | --- |
| C=CCCCCCCCCC(=O)OCC1OC(OC2OC(CO)C(O)C(O)C2O)C(O)C(O)C1O (stereo not shown) [6-(10-Undecylenyl)-trehalose, 6-(10-undecylenyl)-trehalose] | 0% |
| CCCCCCCCCCCC(=O)OCC1OC(OC2OC(CO)C(O)C(O)C2O)C(O)C(O)C1O (stereo not shown) [6-Lauroyl-trehalose, 6-lauroyl-trehalose] | 0% |
| CCCCCCCCCCCCCCCCCC(=O)OC[C@H]1O[C@H](O[C@H]2O[C@H](CO)[C@@H](O)[C@H](O)[C@H]2O)[C@H](O)[C@@H](O)[C@@H]1O [6-Stearoyl-trehalose, 6-stearoyl-trehalose] | 0% |
| CCCCCCCCCCCCOP(=O)([O-])O.[Na+] [Monosodium lauryl phosphate, reference compound] | 0.5% |

— US6497898B1, “Surfactant, and an emulsion-type cosmetic composition and a lipsome containing said surfactant” (Kanebo LTD, priority 1993, dated 2002)
